The results in this text go back to US10392367B2, “IRE1 small molecule inhibitors” (QUENTIS THERAPEUTICS, INC., priority 2017, dated 2019).

In assay [1] the target is T1, IRE1a (Homo sapiens, UniProt O75460). The experiment in a line: In vitro FRET assay (XBP1 RNA probe cleavage by IRE1a). To be noted: SignalChem IRE1a protein 2 nM. Also on record: purchased SignalChem. Format: biochemical. The procedure:
In vitro FRET assay was performed to evaluate the ability of select compounds to inhibit IRE1, the results of which are summarized in Table 3. To perform the in vitro FRET assay, 1× complete assay buffer (CAB; […] DTT, 50 mM sodium citrate pH 7.15, 1 mM magnesium acetate, 0.02% tween 20) was used to dilute SignalChem IRE1a protein to a final concentration of 2 nM. Selected compounds were serially diluted with DMSO in a non-binding black 384-well plate for a total of 15 ul in each well. 2 ul of the serially diluted compound or DMSO control were then added to new wells containing 98 ul of 1×CAB, for a total volume of 100 ul, 10 ul of which were then transferred to wells of a new plate. 5 ul of the diluted IRE1a was then added to each well. 5 ul of a […] XBP1 RNA probe was then added to each well. Fluorescence was then read over 30 minutes in kinetic mode (485/515 nm).
Two RNA probes were used, XBP1 wildtype (SEQ ID NO: 2) which is able to be spliced by active IRE1a or XBP1 mutant (SEQ ID NO: 3) which is unable to be spliced. Each probe contained a 5′ 6-FAM modification and a 3′ IOWA Black FQ modification.

Assay [2] addresses T1, IRE1a. The experiment in a line: IRE1a Endoribonuclease Nanoluciferase Assay (XBP1 luciferase reporter in 293 T cells). Format: cell-based. To be noted: 293 T cells transfected with XBP1 luciferase reporter plasmid. As for the experimental part: Compounds disclosed herein were assessed for disruption of IRE1 signaling using a IRE1a Endoribonuclease Nanoluciferase Assay. Briefly, 2.5×10^6 293 T cells were seeded in a 10 cm^2 tissue culture plate. About 24 hours later, the cells were transfected with Effectene. In a 15 mL Tube, the following was added: 2 μg XBP1 luciferase reporter plasmid (PGK-Luc2-P2A-XBP1u-Nanoluciferase-PEST); 300 μl EC buffer; and 16 μl Enhancer, followed by incubation at room temp for 5 minutes. Next, 60 μl Effectene (Qiagen 301427) was added, followed by incubation at room temperature for 10 minutes. 2.6 mL cDMEM media was added. Old media was aspirated from the cells, followed by addition of 7 mL fresh media. Full transfection mixture was added dropwise to cells. Cells were incubated for 6 hours, followed by tripsinization, centrifugation and resuspension in 11 mL media. 100 uL of cells were plated per a well in a 96 well plate. A day later, stressors of choice+/− inhibitors were added. To harvest, media was aspirated from cells completely, then 50 uL 1× passive lysis buffer (Promega: E1941) was added per well and put on shaker (300 rpm) for 30 minutes at room temperature. Cells were centrifuged, and 15 uL sample per well was added to a new, opaque white 384 well plate (Corning 3570). 15 uL OneGlo (nanoluciferase kit, Promega N1630) was added. Plates were spun down, placed on shaker (300 rpm) for 10 minutes. Plates were read on luminometer, 1000 ms integration time per well. 15 uL Stop and Glo (nanoluciferase kit) was added. Plates were spun down, placed on shaker (300 rpm) for 10 minutes. Plates were read on luminometer, 1000 ms second integration time per well. Recordings are provided below in Table 4.

T1 sequence (O75460 19-977): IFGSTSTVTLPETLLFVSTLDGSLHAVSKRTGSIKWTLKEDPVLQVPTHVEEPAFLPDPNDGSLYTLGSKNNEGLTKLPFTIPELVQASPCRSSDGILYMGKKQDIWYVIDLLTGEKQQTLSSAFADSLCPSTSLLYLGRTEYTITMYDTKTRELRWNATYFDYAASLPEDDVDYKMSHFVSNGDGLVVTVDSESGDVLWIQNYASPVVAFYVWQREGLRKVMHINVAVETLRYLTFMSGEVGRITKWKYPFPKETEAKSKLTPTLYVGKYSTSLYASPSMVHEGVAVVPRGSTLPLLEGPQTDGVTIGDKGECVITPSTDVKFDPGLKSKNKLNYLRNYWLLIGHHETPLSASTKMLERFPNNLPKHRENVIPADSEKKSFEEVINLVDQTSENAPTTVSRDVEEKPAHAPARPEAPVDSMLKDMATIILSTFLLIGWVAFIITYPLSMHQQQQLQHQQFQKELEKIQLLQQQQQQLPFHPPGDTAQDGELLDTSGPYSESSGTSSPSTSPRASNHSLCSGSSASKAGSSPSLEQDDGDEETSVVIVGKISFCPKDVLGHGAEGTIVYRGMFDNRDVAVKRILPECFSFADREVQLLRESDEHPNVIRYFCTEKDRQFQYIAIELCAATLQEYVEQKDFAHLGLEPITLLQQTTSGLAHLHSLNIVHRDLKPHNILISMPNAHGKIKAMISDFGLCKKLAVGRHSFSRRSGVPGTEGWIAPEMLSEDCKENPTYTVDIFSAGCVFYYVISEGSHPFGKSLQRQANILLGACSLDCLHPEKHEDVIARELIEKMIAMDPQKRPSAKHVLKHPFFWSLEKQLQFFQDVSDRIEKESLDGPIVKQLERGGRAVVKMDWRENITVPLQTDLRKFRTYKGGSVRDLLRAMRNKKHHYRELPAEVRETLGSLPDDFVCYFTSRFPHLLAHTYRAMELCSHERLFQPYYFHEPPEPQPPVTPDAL

The term IC50 denotes the midpoint of a concentration-inhibition curve. What is called EC50 is the concentration at which the effect is half-maximal. In turn, `CCc1cc(-c2cc(NC(=O)C(CC)c3ccccc3)nn2C)cc2cnc(N[C@H]3CC[C@H](N)CC3)nc12` (stereo partly drawn) [Compound 16, N-(5-(2-(((1r,4r)-4-aminocyclohexyl)amino)-8-ethylquinazolin-6-yl)-1-methyl-1H-pyrazol-3-yl)-2-phenylbutanamide] had an IC50 in assay [1] of at most 5 nM. The molecule further gave an EC50 in assay [2] above 100 nM.

`CCc1cc(-c2cc(NC(=O)Cc3ccc(OCCCNC)c(C(F)(F)F)c3)nn2C)cc2cnc(N[C@H]3CC[C@H](N)CC3)nc12` [Compound 30, N-(5-(2-(((1r,4r)-4-aminocyclohexyl)amino)-8-ethylquinazolin-6-yl)-1-methyl-1H-pyrazol-3-yl)-2-(4-(3-(methylamino)propoxy)-3-(trifluoromethyl)phenyl)acetamide] returned an IC50 in assay [1] of at most 5 nM. In assay [2], this molecule gave an EC50 of 5 to 50 nM.

In the case of `CCc1cc(-c2cc(NC(=O)Cc3cc(C)cc(F)c3)nn2C)cc2cnc(N[C@H]3CC[C@H](N)CC3)nc12` [Compound 27, N-(5-(2-(((1r,4r)-4-aminocyclohexyl)amino)-8-ethylquinazolin-6-yl)-1-methyl-1H-pyrazol-3-yl)-2-(3-fluoro-5-methylphenyl)acetamide], the IC50 in assay [1] lay within 5 to 50 nM. For the same molecule, in assay [2], the EC50 was above 100 nM.
